Results from patent US4874752A, “Benzoquinone derivatives and production thereof” (Takeda Chemical Industries, Ltd., priority 1982, dated 1989).
Where a name gives a salt, the structure may show the parent alone.

Molecular target: T1, protocollagen-proline hydroxylase (Gallus gallus, UniProt P16924)
T1 construct: partially purified enzyme preparation obtained from chick embryos; from tissue; host or cells: chick embryos (partially purified enzyme)
T1 sequence (P16924 1-516): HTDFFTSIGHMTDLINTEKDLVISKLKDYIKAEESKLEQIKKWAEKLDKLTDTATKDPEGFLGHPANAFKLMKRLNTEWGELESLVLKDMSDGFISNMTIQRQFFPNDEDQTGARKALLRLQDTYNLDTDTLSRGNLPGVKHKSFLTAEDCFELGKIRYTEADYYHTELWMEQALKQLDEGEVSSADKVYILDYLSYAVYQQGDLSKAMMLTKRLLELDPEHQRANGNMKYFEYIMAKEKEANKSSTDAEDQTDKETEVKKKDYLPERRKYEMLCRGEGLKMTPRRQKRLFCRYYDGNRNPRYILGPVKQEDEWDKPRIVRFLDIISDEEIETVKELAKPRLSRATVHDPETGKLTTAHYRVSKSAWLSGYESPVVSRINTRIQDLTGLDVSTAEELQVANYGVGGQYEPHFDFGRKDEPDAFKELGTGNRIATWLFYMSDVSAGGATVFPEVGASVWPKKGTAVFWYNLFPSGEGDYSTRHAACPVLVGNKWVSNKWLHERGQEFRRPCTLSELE
T1 sequence (P09102 23-515 partner): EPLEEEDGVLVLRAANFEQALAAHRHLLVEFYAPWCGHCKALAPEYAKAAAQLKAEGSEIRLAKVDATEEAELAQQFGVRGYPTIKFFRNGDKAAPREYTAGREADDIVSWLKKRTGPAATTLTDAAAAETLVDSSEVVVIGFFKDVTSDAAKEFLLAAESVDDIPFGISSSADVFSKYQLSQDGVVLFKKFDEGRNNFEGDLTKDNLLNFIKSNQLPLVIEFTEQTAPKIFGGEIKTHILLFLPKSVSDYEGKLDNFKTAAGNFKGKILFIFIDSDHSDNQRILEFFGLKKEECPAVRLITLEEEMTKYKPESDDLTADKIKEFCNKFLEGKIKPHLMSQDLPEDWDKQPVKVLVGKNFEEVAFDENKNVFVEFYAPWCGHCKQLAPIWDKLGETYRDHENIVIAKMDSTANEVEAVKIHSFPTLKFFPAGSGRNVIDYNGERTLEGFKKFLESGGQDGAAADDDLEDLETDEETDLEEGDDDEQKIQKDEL
Experiment: Inhibitory activity of protocollagen-proline hydroxylase
Format: biochemical, chick embryos
Conditions: for inhibition at 10 µM / Inhibition of protocollagen-proline hydroxylase: 10 μM
Source text: Determination of this inhibitory activity was made by the method of R. E. Rhoads et al. [Methods in Enzymology XVII B, 306 (1971)] using a partially purified enzyme preparation obtained from chick embryos in accordance with the methods of K. I. Kivirriko et al. and J. Halme et al. [J. Biol, Chem. 242, 4007 (1967) and Biochim. Biophys. Acta 198, 460 (1967)] and, as a substrate, (Pro-Pro-Gly)5.4H2 O[prepared by the Protein Research Foundation, Osaka]. In this procedure, the partially purified enzyme was used in an amount of 100 μg as protein.

| inhibition at 20 µM [%] | inhibition at 10 µM [%] | inhibition at 50 µM [%] | further results | SMILES |
| --- | --- | --- | --- | --- |
| 35 | – | – | – | COC1=C(OC)C(=O)C(CCCCCCCCCC(=O)N2CSCC2C(=O)O)=C(C)C1=O (stereo not drawn) |
| 78 | – | – | – | COC1=C(OC)C(=O)C(CN2CCOCC2)=C(C)C1=O |
| – | – | – | inhibition at 25 µM (25 μM): 30% | COC1=C(OC)C(=O)C(CCCCCCCCCCN2CCOCC2)=C(C)C1=O |
| 100 | 99.9 | 100 | inhibition at 2.5 µM: 62%; inhibition at 5 µM: 72% | COC1=C(OC)C(=O)C(CCOc2ccc(/C=C/C(=O)O)cc2)=C(C)C1=O |
| 100 | 100 | 100 | inhibition at 2.5 µM: 64%; inhibition at 5 µM: 74%; Inhibition of protocollagen-proline hydroxylase: 82% | COC1=C(OC)C(=O)C(CCOc2ccc(CC(=O)O)cc2)=C(C)C1=O |
| 100 | 100 | 100 | inhibition at 2.5 µM: 70%; inhibition at 5 µM: 75%; Inhibition of protocollagen-proline hydroxylase: 92% | COC1=C(OC)C(=O)C(COc2ccc(C(C)C(=O)O)cc2)=C(C)C1=O (stereo not drawn) |
| 67 | 38 | 76 | – | COC(=O)/C=C/C=C/C=C/C=C/C1=C(C)C(=O)C(OC)=C(OC)C1=O |
| 76 | 54 | 84 | – | COC1=C(OC)C(=O)C(c2nc3cc(C(C)C(=O)O)ccc3o2)=C(C)C1=O (stereo not drawn) |
| 48 | 34 | 92 | – | COC1=C(OC)C(=O)C(CC=C(C)COc2ccc(CC(=O)O)cc2)=C(C)C1=O [drawing 20] |
| 46 | 37 | 68 | inhibition at 2.5 µM: 0%; inhibition at 5 µM: 22% | COC1=C(OC)C(=O)C(/C=C/C(=O)O)=C(C)C1=O [drawing 25] |
| 92 | 85 | 92 | inhibition at 2.5 µM: 51%; inhibition at 5 µM: 72% | COC1=C(OC)C(=O)C(/C=C/C(C)=O)=C(C)C1=O [drawing 26] |
| 56 | – | – | – | COC1=C(OC)C(=O)C(CCC(=O)N[C@@H](CCCNC(=N)N)C(=O)O)=C(C)C1=O [m:0, n:2, Z:COArg (salt of acetic acid), 3-(2,3-dimethoxy-5-methyl-1,4-benzoquinon-6-yl)propionyl-L-arginine] |
| 20 | – | – | – | COC1=C(OC)C(=O)C(CCC(=O)N[C@@H](CCC(=O)O)C(=O)O)=C(C)C1=O [m:0, n:2, Z:COGlu, 3-(2,3-dimethoxy-5-methylbenzoquinon-6-yl)propionyl-L-glutamic acid] |
| 46 | – | – | – | COC1=C(OC)C(=O)C(CCC(=O)NCC(=O)O)=C(C)C1=O [m:0, n:2, Z:COGly, 3-(2,3-dimethoxy-5-methyl-1,4-benzoquinone-6-yl)propionyl-glycine] |
| 35 | – | – | – | COC1=C(OC)C(=O)C(CCC(=O)N2CCC[C@H]2C(=O)O)=C(C)C1=O [m:0, n:2, Z:COPro, 3-(2,3-dimethoxy-5-methyl-1,4-benzoquinon-6-yl)propionyl-L-proline] |
| 35 | – | – | – | COC1=C(OC)C(=O)C(CCC(=O)N[C@@H](Cc2ccc(O)cc2)C(=O)O)=C(C)C1=O [m:0, n:2, Z:COTyr, 3-(2,3-dimethoxy-5-methyl-1,4-benzoquinon-6-yl)propionyl-L-tyrosine] |
| 32 | – | – | – | COC1=C(OC)C(=O)C(CCC(=O)N[C@@H](C)C(=O)O)=C(C)C1=O [m:0, n:2, Z:CoAla, 3-(2,3-dimethoxy-5-methyl-1,4-benzoquinon-6-yl)propionyl-L-alanine] |
| 52 | – | – | – | COC1=C(OC)C(=O)C(CCCCCCCCCC(=O)N[C@@H](CCCNC(=N)N)C(=O)O)=C(C)C1=O [m:0, n:9, Z:COArg (salt of acetic acid), 10-(2,3-dimethoxy-5-methyl-1,4-benzoquinon-6-yl)decanoyl-L-arginine] |
| 52 | – | – | – | COC1=C(OC)C(=O)C(CCCCCCCCCC(=O)N[C@H]2C(O)O[C@H](CO)[C@@H](O)[C@@H]2O)=C(C)C1=O (stereo partly drawn) [m:0, n:9, Z:COGlcN, N-[10-(2,3-dimethoxy-5-methyl-1,4-benzoquinon-6-yl)decanoyl]glucosamine] |
| 37 | – | – | – | COC1=C(OC)C(=O)C(CCCCCCCCCC(=O)NC(CCC(=O)O)C(=O)O)=C(C)C1=O (stereo not drawn) [m:0, n:9, Z:COGlu] |
| 52 | – | – | – | COC1=C(OC)C(=O)C(CCCCCCCCCC(=O)N[C@@H](Cc2c[nH]cn2)C(=O)O)=C(C)C1=O [m:0, n:9, Z:COHis, 10-(2,3-dimethoxy-5-methyl-1,4-benzoquinon-6-yl)decanoyl-L-histidine] |
| 25 | – | – | – | COC1=C(OC)C(=O)C(CCCCCCCCCC(=O)N[C@@H](CCCCN)C(=O)O)=C(C)C1=O [m:0, n:9, Z:COLys, 10-(2,3-dimethoxy-5-methyl-1,4-benzoquinon-6-yl)decanoyl-L-lysine] |
| 38 | – | – | – | COC1=C(OC)C(=O)C(CCCCCCCCCC(=O)N[C@@H](CCSC)C(=O)O)=C(C)C1=O [m:0, n:9, Z:COMet, 10-(2,3-dimethoxy-5-methyl-1,4-benzoquinon-6-yl)decanoyl-L-methionine] |
| 32 | – | – | – | COC1=C(OC)C(=O)C(CCCCCCCCCC(=O)OC[C@H]2OC(O)[C@H](NC(C)=O)[C@@H](O[C@H](C)C(=O)O)[C@@H]2O)=C(C)C1=O (stereo partly drawn) [m:0, n:9, Z:COMurNAc, N-acetyl-6O-[10-(2,3-dimethoxy-5-methyl-1,4-benzoquinon-6-yl)decanoyl]muraminic acid] |
| 35 | – | – | – | COC1=C(OC)C(=O)C(CCCCCCCCCC(=O)N[C@H](Cc2ccccc2)C(=O)O)=C(C)C1=O [m:0, n:9, Z:COPhe, 10-(2,3-dimethoxy-5-methyl-1,4-benzoquinon-6-yl)decanoyl-D-phenylalanine] |
| 15 | – | – | – | COC1=C(OC)C(=O)C(CCCCCCCCCC(=O)N[C@@H](Cc2c[nH]c3ccccc23)C(=O)O)=C(C)C1=O [m:0, n:9, Z:COTrp, 10-(2,3-dimethoxy-5-methyl-1,4-benzoquinon-6-yl)decanoyl-L-tryptophan] |
